Consider 27 compounds from ChEMBL document CHEMBL1135169, “4,4-Disubstituted cyclohexylamine NK(1) receptor antagonists I” (Bioorg Med Chem Lett, 2002).

pIC50: −log10 of the molar value.

T1 sequence (P25103 whole entry): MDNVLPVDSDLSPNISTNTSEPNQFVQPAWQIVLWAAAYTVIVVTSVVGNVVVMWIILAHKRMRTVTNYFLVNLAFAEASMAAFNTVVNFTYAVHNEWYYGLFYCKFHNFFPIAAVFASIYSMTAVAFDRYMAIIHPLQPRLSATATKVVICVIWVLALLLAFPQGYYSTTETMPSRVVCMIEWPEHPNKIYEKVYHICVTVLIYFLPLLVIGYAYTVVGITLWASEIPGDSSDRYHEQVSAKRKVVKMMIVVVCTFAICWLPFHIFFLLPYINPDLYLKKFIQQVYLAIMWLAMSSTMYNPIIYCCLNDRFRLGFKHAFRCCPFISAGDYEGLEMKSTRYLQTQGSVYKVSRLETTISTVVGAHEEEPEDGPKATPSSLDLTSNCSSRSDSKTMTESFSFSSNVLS

The subject of one assay is Gerbillinae. Put plainly: Inhibitory dose after 24 hours required to produce blockade of foot-tapping activity induced by central infusion of NK1-agonist GR-73632. Format: functional. To be noted: read-out: ID50 (the source's name).
As for `CC(C(=O)N[C@]1(c2ccccc2)CC[C@@H](N2CCC(c3ccc(F)cc3)CC2)CC1)c1cc(C(F)(F)F)cc(C(F)(F)F)c1` (mixture of isomers), the ED50 came out at 1.8 mg/kg.

Another assay concerns the target T1, Substance-P receptor (Homo sapiens, UniProt P25103). Put plainly: Tested for inhibitory concentration expressed as displacement of [125I]-labeled substance P from the cloned human Tachykinin receptor 1 expressed in CHO cells. The format is cell-based.
Settings: not given
(Loss of bound radioactivity is the signal in a displacement assay; it reports binding, not function.)
A word on the pIC50: it is the IC50 on a negative log10 scale, so that one unit is a factor of ten. Low readings indicate a high IC50, high ones a low IC50. `FC(F)(F)c1cc(CO[C@H]2C3CCN(CC3)[C@H]2c2ccccc2)cc(C(F)(F)F)c1` showed a pIC50 of 9.70.

For the next assay, the system named is Gerbillinae. Put plainly: Inhibitory dose required to produce blockade of foot-tapping activity induced by central infusion of NK1-agonist GR-73632. The format is functional. The note with it: read-out: ID50 (the source's name).
Take `O=C(NCc1cc(C(F)(F)F)cc(C(F)(F)F)c1)[C@]1(c2ccccc2)CC[C@H](N2CCC(c3ccc(F)cc3)CC2)CC1`: the ED50 worked out at 1.9 mg/kg.

On to `CC(C(=O)N[C@]1(c2ccccc2)CC[C@@H](N2CCC(c3ccc(F)cc3)CC2)CC1)c1cc(C(F)(F)F)cc(C(F)(F)F)c1` (mixture of isomers), for which the ED50 was 1.7 mg/kg.

The target of a further assay is T1, Substance-P receptor. Put plainly: Displacement of [125I]-labeled substance P from the cloned Tachykinin receptor 1.
Settings: not given
The compound `CC(C)(NC(=O)[C@]1(c2ccccc2)CC[C@@H](N2CCC(c3ccc(F)cc3)CC2)CC1)c1cc(C(F)(F)F)cc(C(F)(F)F)c1` had a negative-log IC50 (pIC50) of 9.21. Still for that read-out and setting: with `O=C(OCc1cc(C(F)(F)F)cc(C(F)(F)F)c1)[C@]1(c2ccccc2)CC[C@H](N2CCC(c3ccc(F)cc3)CC2)CC1` the figure was 8.60.

Compound `O=C(NCc1cc(C(F)(F)F)cc(C(F)(F)F)c1)[C@]1(c2ccccc2)CC[C@H](N2CCC(c3ccc(F)cc3)CC2)CC1` showed a negative logarithm of the IC50 (pIC50) of 9.47.

The compound `CC(NC(=O)[C@]1(c2ccccc2)CC[C@@H](N2CCC(c3ccc(F)cc3)CC2)CC1)c1cc(C(F)(F)F)cc(C(F)(F)F)c1` (mixture of isomers) showed a negative-log IC50 (pIC50) of 9.11. `O=C(OC[C@]1(c2ccccc2)CC[C@H](N2CCC(c3ccc(F)cc3)CC2)CC1)c1cc(C(F)(F)F)cc(C(F)(F)F)c1` had a pIC50 of 6.92. Compared with the last compound, the pIC50 is 2.19 log units lower. Same read-out and setting: for `O=C(N[C@]1(c2ccccc2)CC[C@@H](N2CCC(c3ccc(F)cc3)CC2)CC1)C(CO)c1cc(C(F)(F)F)cc(C(F)(F)F)c1` (mixture of isomers) the value was 9.36; for `Fc1ccc(C2CCN(C3CCC(CCCc4cc(C(F)(F)F)cc(C(F)(F)F)c4)(c4ccccc4)CC3)CC2)cc1` (mixture of isomers), 7.40; for `O=C(NC[C@]1(c2ccccc2)CC[C@H](N2CCC(c3ccc(F)cc3)CC2)CC1)c1cc(C(F)(F)F)cc(C(F)(F)F)c1`, 8.20.

The compound `O=C(Cc1cc(C(F)(F)F)cc(C(F)(F)F)c1)N[C@]1(c2ccccc2)CC[C@@H](N2CCC(c3ccc(F)cc3)CC2)CC1` had a pIC50 of 7.07. Same read-out and setting: for `O=C(Cc1cc(C(F)(F)F)cc(C(F)(F)F)c1)N[C@]1(c2ccccc2)CC[C@H](N2CCC(c3ccc(F)cc3)CC2)CC1` the value was 9.15; for `Fc1ccc(C2CCN([C@H]3CC[C@@](CNCc4cc(C(F)(F)F)cc(C(F)(F)F)c4)(c4ccccc4)CC3)CC2)cc1`, 7.09; for `O=C(NCc1cc(C(F)(F)F)cc(C(F)(F)F)c1)C1(c2ccccc2)CCNCC1`, 6.89. Same read-out and setting: with `O=C(NC(CO)c1cc(C(F)(F)F)cc(C(F)(F)F)c1)[C@]1(c2ccccc2)CC[C@@H](N2CCC(c3ccc(F)cc3)CC2)CC1` (mixture of isomers) the figure was 9.54; with `O=C(NCc1cc(C(F)(F)F)cc(C(F)(F)F)c1)[C@]1(c2ccccc2)CC[C@@H](N2CCC(c3ccc(F)cc3)CC2)CC1`, 6.82. Same read-out and setting: with `CC(OC[C@]1(c2ccccc2)CC[C@@H](N2CCC(c3ccc(F)cc3)CC2)CC1)c1cc(C(F)(F)F)cc(C(F)(F)F)c1` (mixture of isomers) the figure was 8.28; with `O=C(OCc1cc(C(F)(F)F)cc(C(F)(F)F)c1)[C@]1(c2ccccc2)CC[C@@H](N2CCC(c3ccc(F)cc3)CC2)CC1`, 6.85; with `OCC(OC[C@]1(c2ccccc2)CC[C@@H](N2CCC(c3ccc(F)cc3)CC2)CC1)c1cc(C(F)(F)F)cc(C(F)(F)F)c1` (mixture of isomers), 9.12. Consider `Fc1ccc(C2CCN([C@H]3CC[C@@](COCc4cc(C(F)(F)F)cc(C(F)(F)F)c4)(c4ccccc4)CC3)CC2)cc1`, for which the negative-log IC50 (pIC50) was 7.23. This pIC50 lies 1.89 log units lower than the previous one. The same measure, in the same setting: for `O=C(NC[C@]1(c2ccccc2)CC[C@@H](N2CCC(c3ccc(F)cc3)CC2)CC1)c1cc(C(F)(F)F)cc(C(F)(F)F)c1` the value was 6.60; for `CC(NC(=O)[C@]1(c2ccccc2)CC[C@@H](N2CCC(c3ccc(F)cc3)CC2)CC1)c1cc(C(F)(F)F)cc(C(F)(F)F)c1` (single isomer, unassigned; (-)), 8.82; for `CC(C(=O)N[C@]1(c2ccccc2)CC[C@@H](N2CCC(c3ccc(F)cc3)CC2)CC1)c1cc(C(F)(F)F)cc(C(F)(F)F)c1` (mixture of isomers), 9.20.

Turning to `CC(C)(C(=O)N[C@]1(c2ccccc2)CC[C@@H](N2CCC(c3ccc(F)cc3)CC2)CC1)c1cc(C(F)(F)F)cc(C(F)(F)F)c1`, the negative-log IC50 (pIC50) was 9.31.

For the compound `Fc1ccc(C2CCN([C@H]3CC[C@](CNCc4cc(C(F)(F)F)cc(C(F)(F)F)c4)(c4ccccc4)CC3)CC2)cc1`, the pIC50 is 8.77. Compound `CC(NC(=O)[C@]1(c2ccccc2)CC[C@@H](N2CCC(c3ccc(F)cc3)CC2)CC1)c1cc(C(F)(F)F)cc(C(F)(F)F)c1` (stereo in doubt; (+)-29a) showed a negative logarithm of the IC50 (pIC50) of 9.46. The same measure, in the same setting: with `Fc1ccc(C2CCN([C@H]3CC[C@](COCc4cc(C(F)(F)F)cc(C(F)(F)F)c4)(c4ccccc4)CC3)CC2)cc1` the figure was 8.38.

In another assay the target is T1, Substance-P receptor. Put plainly: Tested for inhibitory concentration expressed as displacement of [125I]-labeled substance P from the cloned Tachykinin receptor 1 expressed in CHO cells at dosage of 1000 nM. Format: cell-based.
Settings: not given
The inhibition is the percentage by which the read-out fell short of the control. Read a low inhibition as little suppression. `O=C(OC[C@]1(c2ccccc2)CC[C@@H](N2CCC(c3ccc(F)cc3)CC2)CC1)c1cc(C(F)(F)F)cc(C(F)(F)F)c1` had an inhibition of 50%.

The subject of another assay is Gerbillinae. Put plainly: Inhibitory activity when the NK1 agonist challenge was given 2 hr after dosing at 3 mg/kg, iv. Format: functional.
Settings: not given
For orientation: inhibition in vivo means the drop in the measured response relative to a control, in per cent. Low readings indicate little suppression, high ones strong suppression. In turn, `O=C(NCc1cc(C(F)(F)F)cc(C(F)(F)F)c1)[C@]1(c2ccccc2)CC[C@H](N2CCC(c3ccc(F)cc3)CC2)CC1` displayed an inhibition in vivo at 3 mg/kg of 15%.

For the next assay, the system named is Gerbillinae. Put plainly: Inhibitory dose after 2 hours required to produce blockade of foot-tapping activity induced by central infusion of NK1-agonist GR-73632. Format: functional. The note with it: read-out: ID50 (the source's name).
In the case of `CC(C(=O)N[C@]1(c2ccccc2)CC[C@@H](N2CCC(c3ccc(F)cc3)CC2)CC1)c1cc(C(F)(F)F)cc(C(F)(F)F)c1` (mixture of isomers), the ED50 is 0.6 mg/kg.
